The structures appear in SMILES notation.

The source of these data is patent publication US8084644B2, “Iminopropene compound and use thereof” (Sumitomo Chemical Company, Limited, priority 2005, dated 2011).

This test has as its system Haemaphysalis longicornis. As to the kind of experiment: Test Example 11: filter paper bag contact test on ticks. It counts as in vivo. The following applies: 48 h, 0.5 mg test compound on 5 cm×10 cm filter paper, after 2 days. The procedure:
0.5 mg of the test compound was dissolved to […]. Onto one side of filter paper having 5 cm×10 cm, the solution was applied uniformly and then air-dried. Thereafter, the filter paper was folded in half and fixed by paper clips at the side to form bag like shape. Ten Haemaphysalis longicornis was put into the bag, and then the bag was closed with a paper clip. After 2 days, the number of dead insects was examined.
As a reminder, the mortality is the share of the test organisms that died. A low value points to more survivors. In turn, `FC(F)(F)c1ccc(N=C(C=CSc2ccccc2)Oc2ccccc2)cc1` [(52), Phenyl N-(4-trifluoromethylphenyl)-3-(phenylthio)acrylimidate] returned a mortality at 0.5 mg/filter paper of 100%.
Next, `Cc1ccc(N=C(C=CSc2ccccc2)Oc2ccccc2)cc1` [(54), Phenyl N-(4-methylphenyl)-3-(phenylthio)acrylimidate]: 100%; `CCCCSC(C=CSc1ccc(Cl)cc1)=Nc1ccc(C)cc1` [(475), Butyl 3-(4-chlorophenylthio)-N-(4-methylphenyl)thioacrylimidate]: 100%; `C=CCSC(C=CSc1ccccc1)=Nc1ccccc1` [(186), 2-Propenyl N-phenyl-3-(phenylthio)thioacrylimidate]: 100%.
To `CC(C)c1ccc(N=C(C=CSc2ccccc2)Oc2ccc(N)cc2)cc1` [(188), 4-Aminophenyl N-[4-(1-methylethyl)phenyl]-3-(phenylthio)acrylimidate] belongs 100%; to `COc1ccc(SC=CC(=Nc2ccc(C)cc2)SCC(C)C)cc1` [(447), Isobutyl 3-(4-methoxyphenylthio)-N-(4-methylphenyl)thioacrylimidate], 100%; to `Clc1ccc(SC(C=CSc2ccccc2)=Nc2ccccc2)cc1` [(2), 4-Chlorophenyl N-phenyl-3-(phenylthio)thioacrylimidate], 100%.
To `FC(F)(F)Oc1ccc(N=C(C=COc2ccccc2)Oc2ccccc2)cc1` [(207), Phenyl N-(4-trifluoromethoxyphenyl)-3-phenoxyacrylimidate] belongs 100%; to `Cc1cc(C)cc(SC=CC(=Nc2ccccc2)Oc2ccccc2)c1` [(121), Phenyl 3-(3,5-dimethylphenylthio)-N-phenylacrylimidate], 100%; to `Cc1ccc(N=C(C=CSc2ccccc2C)SCC(C)C)cc1` [(441), Isobutyl N-(4-methylphenyl)-3-(2-methylphenylthio)thioacrylimidate], 100%.
In turn, `Cc1ccc(N=C(C=CSc2ccccc2)SC2CCCC2)cc1` [(333), Cyclopentyl N-(4-methylphenyl)-3-(phenylthio)thioacrylimidate] had a mortality at 0.5 mg/filter paper of 100%.
Compound `Clc1ccc(N=C(C=COc2ccccc2)Oc2ccccc2)cc1` [(43), Phenyl N-(4-chlorophenyl)-3-(phenoxy)acrylimidate] registered a mortality at 0.5 mg/filter paper of 100%.
Next, `Cc1cccc(N=C(C=COc2ccccc2)Oc2ccccc2)c1` [(69), Phenyl N-(3-methylphenyl)-3-(phenoxy)acrylimidate]: 100%; `Cc1ccc(N=C(C=CSc2ccccc2F)SCC2CCCCC2)cc1` [(341), Cyclohexylmethyl 3-(2-fluorophenylthio)-N-(4-methylphenyl)-thioacrylimidate]: 100%.
To `C(=CC(=Nc1ccccc1)Sc1ccccc1)Oc1ccccc1` [(35), Phenyl N-phenyl-3-(phenoxy)thioacrylimidate] belongs 100%; to `Cc1ccc(N=C(C=CSc2ccccc2F)SCC(C)C)cc1` [(428), Isobutyl 3-(2-fluorophenylthio)-N-(4-methylphenyl)thioacrylimidate], 100%; to `C(=CC(=Nc1ccccc1)Oc1ccccc1)Sc1ccccc1` [(37), Phenyl N-phenyl-3-(phenylthio)acrylimidate], 100%.
Next, `Cc1ccc(N=C(C=CSc2ccccc2Cl)SCC(C)C)cc1` [(433), Isobutyl 3-(2-chlorophenylthio)-N-(4-methylphenyl)thioacrylimidate]: 100%.
With `Fc1ccc(SC=CC(=Nc2ccccc2)Oc2ccccc2)cc1` [(103), Phenyl 3-(4-fluorophenylthio)-N-phenylacrylimidate], the mortality at 0.5 mg/filter paper amounted to 100%.
To `C(=CC(=Nc1ccccc1)SC1CCCCC1)Sc1ccccc1` [(187), Cyclohexyl N-phenyl-3-(phenylthio)thioacrylimidate] belongs 100%.
To `Fc1cccc(SC=CC(=Nc2ccccc2)Oc2ccccc2)c1` [(113), Phenyl 3-(3-fluorophenylthio)-N-phenylacrylimidate] belongs 100%; to `Clc1ccc(N=C(C=COc2ccccc2)Oc2ccccc2)cc1Cl` [(59), Phenyl N-(3,4-dichlorophenyl)-3-(phenoxy)acrylimidate], 100%; to `Clc1ccccc1SC(C=CSc1ccccc1)=Nc1ccccc1` [(4), 2-Chlorophenyl N-phenyl-3-(phenylthio)thioacrylimidate], 100%.
To `COc1cccc(SC=CC(=Nc2ccc(C)cc2)SCC(C)C)c1` [(446), Isobutyl 3-(3-methoxyphenylthio)-N-(4-methylphenyl)thioacrylimidate] belongs 100%; to `Clc1cccc(SC(C=CSc2ccccc2)=Nc2ccccc2)c1` [(3), 3-Chlorophenyl N-phenyl-3-(phenylthio)thioacrylimidate], 100%.
In turn, `CCC(C)OC(C=CSc1ccc(F)cc1)=Nc1ccc(C)cc1` (stereo not drawn) [(513), 1-Methylpropyl 3-(4-fluorophenylthio)-N-(4-methylphenyl)acrylimidate] gave a mortality at 0.5 mg/filter paper of 100%.
To `Clc1cccc(N=C(C=COc2ccccc2)Oc2ccccc2)c1` [(45), Phenyl N-(3-chlorophenyl)-3-(phenoxy)acrylimidate] belongs 100%; to `CCCCSC(C=CSc1ccc(F)cc1)=Nc1ccc(C)cc1` [(474), Butyl 3-(4-fluorophenylthio)-N-(4-methylphenyl)thioacrylimidate], 100%; to `Cc1ccc(N=C(C=CSc2ccc(C)cc2)SC2CCCCC2)cc1` [(473), Cyclohexyl N-(4-methylphenyl)-3-(4-methylphenylthio)thioacrylimidate], 100%.
To `Cc1ccc(N=C(C=CSc2ccccc2)Sc2cccs2)cc1` [(480), 2-Thienyl N-(4-methylphenyl)-3-(phenylthio)thioacrylimidate] belongs 100%; to `Cc1ccc(N=C(C=CSc2ccccc2)SCC(C)C)cc1` [(321), 2-Methylpropyl N-(4-methylphenyl)-3-(phenylthio)thioacrylimidate], 100%; to `Cc1ccc(SC=CC(=Nc2ccccc2)Oc2ccccc2)cc1` [(118), Phenyl 3-(4-methylphenylthio)-N-phenylacrylimidate], 100%.
Next, `Brc1cccc(SC=CC(=Nc2ccccc2)Oc2ccccc2)c1` [(101), Phenyl 3-(3-bromophenylthio)-N-phenylacrylimidate]: 100%; `Cc1ccc(N=C(C=CSc2ccccc2)SC(C)(C)C)cc1` [(265), 1,1-Dimethylethyl N-(4-methylphenyl)-3-(phenylthio)thioacrylimidate]: 100%; `Cc1ccc(N=C(C=CSc2ccc(F)cc2)SCC(C)C)cc1` [(431), Isobutyl 3-(4-fluorophenylthio)-N-(4-methylphenyl)thioacrylimidate]: 100%.
As for `COc1ccc(SC=CC(=Nc2ccccc2)Oc2ccccc2)cc1` [(146), Phenyl 3-(4-methoxyphenylthio)-N-phenylacrylimidate], the mortality at 0.5 mg/filter paper worked out at 100%.
To `Cc1ccc(SC=CC(=Nc2ccccc2)Oc2ccccc2)c(C)c1` [(119), Phenyl 3-(2,4-dimethylphenylthio)-N-phenylacrylimidate] belongs 100%.
To `CCC(C)SC(C=CSc1ccccc1)=Nc1ccc(C)cc1` (stereo not drawn) [(324), 1-Methylpropyl N-(4-methylphenyl)-3-(phenylthio)thioacrylimidate] belongs 100%; to `Cc1ccc(N=C(C=CSc2ccc(F)cc2)SC2CCCCC2)cc1` [(471), Cyclohexyl 3-(4-fluorophenylthio)-N-(4-methylphenyl)thioacrylimidate], 100%.
Next, `C(=CC(=Nc1ccccc1)Sc1ccccc1)Sc1ccccc1` [(1), Phenyl N-phenyl-3-(phenylthio)thioacrylimidate]: 100%; `Cc1ccc(N=C(C=CSc2cccc(Cl)c2)SCC(C)C)cc1` [(434), Isobutyl 3-(3-chlorophenylthio)-N-(4-methylphenyl)thioacrylimidate]: 100%; `Fc1ccc(N=C(C=CSc2ccccc2)Sc2ccccc2)cc1` [(264), Phenyl N-(4-fluorophenyl)-3-(phenylthio)thioacrylimidate]: 100%.
As to `Cc1ccc(OC(C=CSc2ccccc2)=Nc2ccc(C(C)C)cc2)cc1` [(88), 4-Methylphenyl N-[4-(1-methylethyl)phenyl]-3-(phenylthio)acrylimidate], the mortality at 0.5 mg/filter paper is 100%.
To `CC(C)c1ccccc1SC=CC(=Nc1ccccc1)Oc1ccccc1` [(122), Phenyl 3-[2-(1-methylethyl)phenylthio]-N-phenylacrylimidate] belongs 100%; to `Brc1ccc(N=C(C=COc2ccccc2)Oc2ccccc2)cc1` [(77), Phenyl N-(4-bromophenyl)-3-(phenoxy)acrylimidate], 100%; to `Fc1cccc(N=C(C=CSc2ccccc2)Oc2ccccc2)c1` [(51), Phenyl N-(3-fluorophenyl)-3-(phenylthio)acrylimidate], 100%.
To `COc1cccc(SC=CC(=Nc2ccccc2)Oc2ccccc2)c1` [(107), Phenyl 3-(3-methoxyphenylthio)-N-phenylacrylimidate] belongs 100%; to `Ic1ccc(N=C(C=COc2ccccc2)Oc2ccccc2)cc1` [(80), Phenyl N-(4-iodophenyl)-3-(phenoxy)acrylimidate], 100%.
